Read-outs that look alike come from different tables or passages of the source.

Results on two compounds are retold here after patent publication US10646494B2, “Heterocycle-substituted tetracyclic compounds and methods of use thereof for the treatment of viral diseases” (Merck Sharp & Dohme Corp., priority 2016, dated 2020).

Parameters in all cases: species or system Hepatitis C virus (HCV)
One assay deals with HCV replicon 2B. Put plainly: Cell-based HCV replicon assay (Replicon Assay A), replicon 2B. The following applies: read-out: Replicon EC50 (nM) 2B, replicon 2B, replicon RNA by real time PCR, cells harvested on day 3. The protocol: (§1) To measure cell-based anti-HCV activity of compounds of the present invention, two complimentary assays were employed using various replicons. In the first assay (“Replicon Assay A”), replicon cells were seeded at 2000 cells/well in 384-well 384-well flat bottom tissue culture treated clear bottom plate (Corning 3707) in the presence of the test compound. Various concentrations of test compound, typically in 10 serial dilutions, were added to the assay mixture, with the starting concentration ranging from 333.3 nM to […]. The final concentration of DMSO was 0.5%. Fetal bovine serum was 5%, in the assay media. Cells were harvested on day 3 by removing media and washing the cells with a suitable wash buffer. The cells are lysed with the addition of 1× Qiagen lysis buffer (Cat #1062731). The replicon RNA level was measured using real time PCR (TaqMan® EZ RT-PCR, Applied Biosystems 403028) with the following primers and probes: […]
(§2) Cyclophilin RNA was used as endogenous control and was amplified in the same reaction as NS5B (multiplex PCR). The real-time RT-PCR reactions were run on ABI PRISM 7900HT Sequence Detection System using the following program: 50° C. for 2 minutes, 60° C. for 30 minutes, 95° C. for 5 minutes, 40 cycles of 94° C. for 20 sec, 55° C. for 1 minutes.
(§3) The amount of HCV replicon RNA per cell is quantified using a linear regression curve for a known nanogram (ng) amount of HCV replicon total RNA. This is established by plotting the Cycle Threshold values (Ct) from the Neo probe and primer set versus the log (ng) for each HCV replicon total RNA standard. The amount of HCV RNA for each replicon sample is calculated by taking the sample's Ct value, minus the line intercept, divided by the slope of the line. Similarly, the amount of Cyclophilin mRNA per cell is also quantified using a linear regression curve for a known nanogram (ng) amount of HCV replicon total RNA. Again, this is established by plotting the Cycle Threshold values (Ct) from the Cyclophilin probe and primer set versus the log (ng) for each HCV replicon total RNA standard.
(§4) Data was obtained for various compounds of the present invention using the methods described in the Example above, and is presented in the table immediately below. Data for replicons 1A, 1AY93H and 2B were obtained using Replicon Assay A and data for replicons 1B were obtained using Replicon Assay B.

The next assay concerns HCV replicon 1B. Put plainly: Cell-based HCV replicon assay (Replicon Assay B), replicon 1B. The following applies: replicon RNA by real-time PCR, incubated for 3 days. The protocol: In an alternate assay (“Replicon Assay B”), 1000 cells were seeded per well in a 384-well collagen coated black plate from Greiner bio-one (Cat #781946) in 5% FBS. Inhibitors of this invention were added at 24 h post-seeding, and the plates were incubated for 3 days. Cells were subsequently lysed with Qiagen lysis buffer (Cat #1062731) to extract the RNA. HCV replicon RNA level was measured by real-time PCR using the RNA-to-CT kit from Applied Biosystem (Cat #4392656) and genotype-specific primers and probes. The amplicon was located within NSSB. The sequence of the PCR primers are as follows: 5B.2F, ATGGACAGGCGCCCTGA (SEQ. ID NO. 1); 5B.2R, […] (SEQ. ID NO. 2); the probe sequence was FAM-labeled CACGCCATGCGCTGCGG (SEQ. ID NO. 3). To detect genotype 1A the primer 1A F, TGCGGAACCGGTGAGTACA and 1A R, […] were used; the probe sequence was FAM-[…].
The real-time RT-PCR reactions were run on ABI PRISM 7900HT or Viia7 Sequence Detection System using the following program: 48° C. for 30 minutes, 95° C. for 10 minutes, 40 cycles of 95° C. for 15 sec, 60° C. for 1 minutes. The 50% effective concentration (EC50) was the drug concentration necessary to achieve an increase in the cycle threshold (CT) of 1 over the projected baseline CT.
as §4

For a further assay, the system named is HCV replicon 1A Y93H. Put plainly: Cell-based HCV replicon assay (Replicon Assay A), replicon 1AY93H. The following applies: read-out: Replicon EC50 (nM) 1A Y93H, replicon 1A Y93H, replicon RNA by real time PCR, cells harvested on day 3. The protocol:
as §1, §2, §3, §4

Another assay has as its system HCV replicon 1A. As to the kind of experiment: Cell-based HCV replicon assay (Replicon Assay A), replicon 1A. The conditions noted are these: replicon RNA by real time PCR, cells harvested on day 3. The procedure: as §1, §2, §3, §4

On to `COC(=O)N[C@H](C(=O)N1CCC[C@H]1c1ncc(-c2cc(F)c3c(c2)OC(c2cc(C4CC4)no2)n2c-3cc3cc(-c4cnc([C@@H]5CCCN5C(=O)[C@@H](NC(=O)OC)C(C)C)[nH]4)ccc32)[nH]1)C(C)C` (single isomer, unassigned) [Compound 30], for which the EC50 with HCV replicon 2B is 0.06 nM; in the assay on HCV replicon 1B (Hepatitis C virus, 72 h), 0.0017 nM; in the assay on HCV replicon 1A Y93H, 0.026 nM; in the assay on HCV replicon 1A (Hepatitis C virus, 72 h), 0.0012 nM.
Regarding `COC(=O)N[C@H](C(=O)N1CCC[C@H]1c1ncc(-c2cc(F)c3c(c2)OC(c2coc(C4CC4)n2)n2c-3cc3cc(-c4cnc([C@@H]5CCCN5C(=O)[C@@H](NC(=O)OC)C(C)C)[nH]4)ccc32)[nH]1)C(C)C` (single isomer, unassigned) [Compound 36], the EC50 with HCV replicon 2B (Hepatitis C virus, 72 h) is 0.11 nM; in the assay with HCV replicon 1B it was 0.0029 nM; in the assay with HCV replicon 1A Y93H (Hepatitis C virus, 72 h), 0.102 nM; with HCV replicon 1A it was 0.0023 nM.
